In test [1] the test system is MCF-7 (FR−) human breast carcinoma cells. The experiment in a line: Guava ViaCount cytotoxicity assay, folate-targeted liposomes. Type of test: cell-based. The text has this:
(§1) Cell culture. SU-DHL-4 (human lymphoma B cells) was from the Deutsche Sammlung von Mikroorganismen and Zellkulturen GmbH (DSMZ, Braunschweig, Germany). MM.1S (human multiple myeloma B cells) was previously established in the laboratory of Prof. Steven. T. Rosen (Robert H. Lurie Comprehensive Cancer Center, Northwestern University). IM-9 (human lymphoblast B cells), MDA-MB-231 (human breast adenocarcinoma cells), OVCAR-3 (human ovary adenocarcinoma cells), KB (human nasopharyngeal epidermal carcinoma cells, FR), and MCF-7 (human breast carcinoma cells, FR^-) (Sonvico et al. J. Drug Del. Sci. Tech. 2005, 15, 407-410, Chen et al. Mol. Cancer Ther. 2009, in press., herein incorporated by reference in their entireties) were purchased from ATCC (Manassas, Va., USA). All Cells were maintained at 37° C. in an incubator with 5% CO2 and harvested in the exponential phase of growth. SU-DHL-4, IM-9, and MM.1S cells were cultured in RPMI-1640 supplemented with 10% FBS, 2 mM glutamine, 100 units/mL penicillin-streptomycin, and 2.5 μg/mL Amphotericin B. MDA-MB-231 cells were cultured in DMEM/F12 supplemented with 5% cds-FBS, 2 mM glutamine, 100 units/mL penicillin-streptomycin, and 0.1% human insulin solution. OVCAR-3 cells were cultured in RPMI-1640 supplemented with 20% FBS, 100 units/mL penicillin-streptomycin, and 0.1% human insulin solution. MCF-7 cells was cultured in EMEM supplemented with 10% FBS, 2 mM glutamine, 100 units/mL penicillin-streptomycin and 2.5 μg/mL Amphotericin B. KB cells were cultured in EMEM supplemented with 10% FBS and 50 units/mL penicillin-streptomycin. For folate-targeting experiments, KB cells were transferred into folate-deficient RPMI-1640 medium for more than one week before each experiment (Lee et al. J. Biol. Chem. 1994, 269, 3198-3204, herein incorporated by reference in its entirety).
(§2) The in vitro cytotoxicities of folate-targeted liposomes against KB and MCF-7 cells were determined by Guave ViaCount assay (Stearns et al. Cancer Res. 2006, 66, 673-681, Donaldson et al. Cell Death Differ 2009, 16, 125-138, herein incorporated by reference in their entireties) (The MTS assay is not applicable in this case because the folate moiety interferes with the reactions of MTS/PMS agents and seriously impairs accuracy of cell viability (Chen et al. Mol. Cancer Ther. 2009, in press.)). Cells were first plated in 48-well plates at a density of 30,000-60,000 cells/mL, 0.2 mL per well. After 24 h at 37° C., the media were replaced with drug solutions. Cells were thus incubated with drugs continuously for 72 h, or exposed to drugs for 3 h at 37° C., then washed with PBS ×2 and further incubated up to 72 h in drug-free medium. The same Pt concentrations of aqua-cisPt were used as in f-NB(As, Pt). Cell viability was determined by Guave ViaCount (Stearns et al. Cancer Res. 2006, 66, 673-681, Donaldson et al. Cell Death Differ 2009, 16, 125-138, herein incorporated by reference in their entireties), using a Guava EasyCyte Mini flow cytometer (Guava Technologies, Hayward, Calif.). Cells, after released from plates by trypsinization (using 0.05% trypsin/0.02% EDTA), were stained with the Guava Viacount agent, which contains two fluorescent dyes, one cell permeable and one impermeable. This allows viable and dead cell numbers to be accurately determined by Guava Viacount software. Cell growth rates were expressed as a function of drug concentration on a logarithmic scale. The IC50 values (the drug concentration required for 50% inhibition of cell growth) were determined by fitting to a sigmoidal dose-response curve using Origin 6.0 (Microcal Software, Inc., Northampton, USA) (SEE FIGS. 12F-G and Table 3).

Test [2] concerns KB (FR+) human nasopharyngeal epidermal carcinoma cells. The test is described as above. The format is cell-based.
Text: as §1, §2

In test [3] the test system is OVCAR-3 (human ovary adenocarcinoma cells). Briefly: MTS cell proliferation cytotoxicity assay. The format is cell-based. The settings on record: 72 h drug treatment.
Text: as §1
(§3) The MTS assay is one of most high throughput and economical assays for detecting viability of cancer cells. Briefly, SU-DHL-4 and IM-9 (40,000 cells/mL), and MM.1S (250,000 cells/mL) were treated with drugs and plated in quadruplicate (100 uL/well) onto 96-well plates. For MDA-MB-231 and OVCAR-3, 20,000 cells/mL were plated in quadruplicate (100 uL/well) onto 96-well plates, incubated overnight and then treated with drugs. After incubation for the indicated period at 37° C., the MTS/PMS solution (20 μL/well) was added to each well and the plates were further incubated for 4 h at 37° C. before reading the absorbance at 490 nm. Cell growth rates were expressed as a function of drug concentration on a logarithmic scale. The IC50 values (the drug concentration required for 50% inhibition of cell growth) were determined by fitting to a sigmoidal dose-response curve using Origin 6.0 software (Microcal Software, Inc., Northampton, USA). In the case of the 1.5 h (SEE FIG. 8B) or 2 h (SEE FIG. 9B) time periods, the cells treated with drugs were first incubated for 1.5 h or 2 h at 37° C., then washed twice with PBS to remove un-associated drugs or liposomes, and further incubated up to 48 h (FIG. 8b) or 72 h (FIG. 9b) in drug-free medium, followed by the MTS assay.

Another test concerns MCF-7 (FR−) cells. Briefly: Quantitative cellular drug uptake by ICP-MS. The format is cell-based, human. As to conditions: 3 h at 37° C.
Text: as §1, with “OVCAR-3 cells were cultured in RPMI-1640 supplemented with 20% FBS, 100 units/mL penicillin-streptomycin, and 0.1% human insulin solution. MCF-7 cells was cultured in EMEM supplemented with 10% FBS, 2 mM glutamine, 100 units/mL penicillin-streptomycin and 2.5 μg/mL Amphotericin B. KB cells were cultured in EMEM supplemented with 10% FBS and 50 units/mL penicillin-streptomycin. For folate-targeting experiments, KB cells were transferred into folate-deficient RPMI-1640 medium for more than one week before each experiment (Lee et al. J. Biol. Chem. 1994, 269, 3198-3204, herein incorporated by reference in its entirety).” left out
Cells were plated, 24 h before each experiment, in 6-well plates with 500,000 cells per well. […] Cell-associated drug was expressed as As and Pt atoms per cell (SEE FIG. 12E and Table 4.

Test [4] deals with IM-9 (human lymphoblast B cells). Type of test: cell-based. As to conditions: 48 h drug treatment.
Text: as §1, §3

Test [5] deals with SU-DHL-4 (human lymphoma B cells). The format is cell-based. The settings on record: 48 h drug treatment.
Text: as §1, §3

The subject of test [6] is MDA-MB-231 (human breast adenocarcinoma cells). The format is cell-based. As to conditions: 72 h drug treatment.
Text: as §1, §3

Test [7] deals with MM.1S (human multiple myeloma B cells). Briefly: MTS cell proliferation cytotoxicity assay. The format is cell-based. As to conditions: 72 h drug treatment.
Text: as §1, §3

In test [8] the test system is human lymphoma cell line SU-DHL-4 (CD20-positive). Briefly: MTS cytotoxicity assay of liposomal Ni-arsenic and Rituxan conjugate. The format is cell-based. The settings on record: 72 h (three days) at 37° C.; read-out: IC50 (arsenic level), SU-DHL-4. The procedure:
The human lymphoma B cell line of SU-DHL-4 (CD20-positive) was obtained from the American Type Culture Collection (Rockville, MD, USA). Cells were cultured in RPMI 1640 (Invitrogen Corporation) supplemented with 10% fetal bovine serum, 2 mM glutamine, 100 units/mL penicillim, 100 ug/mL streptomycin, and 2.5 ug/mL fungizone. Cells were maintained at 37° C. in an incubator with 5% CO2 and harvested in the exponential phase of growth.
Cells (25,000 cells/mL) were treated with various drugs and plated in 96-well plates. After incubation for 72 h at 37° C., the MTS solution (20 uL/well) was added to each well and the plates were further incubated for 4 h at 37° C. before the absorbance readings at 490 nm.
In a parallel experiment, SU-DHL-4 cells (100,000 cells/mL) were treated with various drugs and plated in 96-well plates. After incubation at 37° C. for 20 min, cells were washed twice using 200 uL/well of PBS and refilled with 100 uL/well of fresh medium and incubated for an additional 71.6 h. The MTS solution (20 uL/well) was added to each well and the plates were further incubated for 4 h at 37° C. before taking the absorbance readings at 490 nm.
In general terms: Tetrazolium assays rely on reduction of a dye to a coloured formazan, in cell work by metabolically active cells.

Where two headings read alike, the source gives them in different places.

As to `CC(=O)[O-].CC(=O)[O-].N.N.O.O.[Pt+2]` [Aqua-cisPt, [cis-(NH3)2Pt(OH2)2](OAc)2], the 50% inhibitory concentration (IC50) in [1] (continuous 72 h incubation, Pt concentration, read-out: MCF-7 (FR^−), IC50 (μM), 72 h) stood at 12.2 ± 0.4 µM; in [1] (read-out: MCF-7 (FR^−), IC50 (μM), 3 h, 3 h exposure, washed, drug-free medium up to 72 h, Pt concentration), 88.9 ± 14.4 µM; in test [2] (continuous 72 h incubation, Pt concentration, read-out: KB (FR^+), IC50 (μM), 72 h), 1.3 ± 0.2 µM; in [2] (read-out: KB (FR^+), IC50 (μM), 3 h, 3 h exposure, washed, drug-free medium up to 72 h, Pt concentration), 9.7 ± 2.5 µM; in [3] (based on Pt concentration) it was 2.6 ± 0.8 µM; in test [4] (based on Pt concentration), 1 ± 0.01 µM. Besides, the half-inhibitory concentration (IC50) in test [5] (based on Pt concentration) amounted to 5.5 µM; in [6] (based on Pt concentration), 17.9 µM. For the same compound, in the test on MCF-7 (FR−) cells (10 μM arsenic / 8 μM Pt), the “Cellular uptake, MCF-7 (FR^−), Pt” value is 0.24 ± 0.07 ×10^7 atoms/cell.
Take `N.N.[Cl][Pt][Cl]` [CisPt, cis-diamine dichloroplatinum(II)]: the IC50 in [7] (based on Pt concentration) turned out to be 1.43 µM; in test [3] (based on Pt concentration) it was 2 ± 0.01 µM; in [4] (based on Pt concentration), 0.6 ± 0.2 µM; in test [5] (based on Pt concentration) it was 3.5 µM; in [6] (based on Pt concentration), 14 µM.
Turning to Arsenic trioxide [As2O3], the IC50 is 6.9 ± 1.7 µM in test [1] (continuous 72 h incubation, As concentration, read-out: MCF-7 (FR^−), IC50 (μM), 72 h); 63.7 ± 22.3 µM in [1] (read-out: MCF-7 (FR^−), IC50 (μM), 3 h, 3 h exposure, washed, drug-free medium up to 72 h, As concentration); 5.2 ± 1 µM in [2] (continuous 72 h incubation, As concentration, read-out: KB (FR^+), IC50 (μM), 72 h); over 200 µM in [2] (read-out: KB (FR^+), IC50 (μM), 3 h, 3 h exposure, washed, drug-free medium up to 72 h, As concentration); 1.45 µM in test [8]; 0.58 µM in test [7] (based on As concentration). Moreover, the IC50 in test [3] (based on As concentration) came to 2.7 ± 1.1 µM; in test [4] (based on As concentration) it was 2.1 ± 0.03 µM; in [5] (based on As concentration), 3.7 µM; in [6] (based on As concentration) it was 10 µM. Also, the “Cellular uptake, MCF-7 (FR^−), As” value in the test with MCF-7 (FR−) cells (10 μM arsenic) was 9.4 ± 2.3 ×10^7 atoms/cell.

The term IC50 denotes the concentration that gives 50% inhibition.

For the origin of these results see patent US20110020434A1, “NANOPARTICLE ARSENIC-PLATINUM COMPOSITIONS” (priority 2005, published 2011).
